Measured values as given in ChEMBL document CHEMBL3832761, “MMV Pathogen Box Bioactivity Data” (2017).
Converted amounts (≈) assume the structure as drawn.

Experiments:
Plasmodium falciparum [1] = assay: Antimalarial activity: Gametocytes Plasmodium falciparum NF54 Gametocytes Stage V: inhibition at 10 uM (%); format: functional
Plasmodium falciparum [2] = assay: Antimalarial activity: Asexual Blood Stage Plasmodium falciparum Dd2 IC50 (uM); format: functional, organism-based
Plasmodium berghei [3] = assay: Antimalarial activity: Liver Stage Plasmodium berghei sporozoite Luciferase assay IC50 (uM); format: functional, organism-based
Plasmodium berghei [4] = assay: Antimalarial activity: Liver Stage Plasmodium berghei sporozoite Luciferase assay: inhibition at 10 uM (%); format: functional
Plasmodium falciparum [5] = assay: Antimalarial activity: Asexual Blood Stage Plasmodium falciparum 3D7 IC50 (uM); format: functional, organism-based
HepG2 [6] = assay: Cytotoxicity data HepG2 CC20 (uM); format: functional
Plasmodium falciparum [7] = assay: Antimalarial activity: Asexual Blood Stage Plasmodium falciparum W2 IC50 (uM); format: functional, organism-based
Plasmodium falciparum [8] = assay: Antimalarial activity: Gametocytes Plasmodium falciparum NF54 Gametocytes Stage V IC50 (uM); format: functional, organism-based
HepG2 [9] = assay: HepG2 CC50 (uM) Cytotoxicity; format: functional; conditions: Homo sapiens
HepG2 [10] = assay: HepG2 inhibition at 10 uM (%) Cytotoxicity; format: functional; conditions: Homo sapiens
[11] = system: Mycobacterium tuberculosis; assay: AntiMycobacterium tuberculosis activity 2-week Alamar Blue 7H9/ADC/Tw MIC (uM); format: functional; conditions: 336 h
[12] = system: Mycobacterium tuberculosis; assay: AntiMycobacterium tuberculosis activity Replicating form: Average MIC90 (uM); format: functional
[13] = system: Mycobacterium tuberculosis; assay: (§1) AntiMycobacterium tuberculosis activity day 10 in 7H9/2.5mM butyrate/pH6/0.1mM nitrite MIC90 (uM); format: functional; conditions: 240 h
[14] = system: Mycobacterium tuberculosis; assay: AntiMycobacterium tuberculosis activity day 21 in 7H9/2.5mM butyrate/pH6/0.1mM nitrite MIC90 (uM); format: functional; conditions: 504 h
[15] = system: Mycobacterium tuberculosis; assay: AntiMycobacterium tuberculosis activity 1-week 7H9/DPPC/cholesterol/BSA/Tx MIC (uM); format: functional; conditions: 168 h
[16] = system: Mycobacterium tuberculosis; assay: AntiMycobacterium tuberculosis activity 1-week GAST/Fe MIC (uM); format: functional; conditions: 168 h
HepG2 [17] = assay: HepG2 galactose CC50 (uM) Cytotoxicity; format: functional
[18] = system: Mycobacterium tuberculosis; assay: AntiMycobacterium tuberculosis activity 2-week 7H9/glucose/BSA/Tx MIC (uM); format: functional; conditions: 336 h
HepG2 [19] = assay: HepG2 glucose CC50 (uM) Cytotoxicity; format: functional
[20] = system: Mycobacterium tuberculosis; assay: AntiMycobacterium tuberculosis activity Non-Replicating form: Average MIC90 (uM); format: functional
[21] = system: Mycobacterium tuberculosis; assay: AntiMycobacterium tuberculosis activity 2-week Alamar Blue 7H9/cholesterol/BSA/Tx MIC (uM); format: functional; conditions: 336 h
[22] = system: Mycobacterium tuberculosis; assay: AntiMycobacterium tuberculosis activity 2-week GAST/Fe MIC (uM); format: functional; conditions: 336 h
[23] = system: Mycobacterium tuberculosis; assay: AntiMycobacterium tuberculosis activity 1-week 7H9/glucose/BSA/Tx MIC (uM); format: functional; conditions: 168 h
[24] = system: Mycobacterium tuberculosis; assay: AntiMycobacterium tuberculosis activity 1-week 7H9/ADC/Tw MIC (uM); format: functional; conditions: 168 h
[25] = system: Mycobacterium tuberculosis; assay: AntiMycobacterium tuberculosis activity day 21 MIC99 in 7H9/2.5mM butyrate/pH6/0.1mM nitrite MIC99 (uM); format: functional; conditions: 504 h
[26] = system: Mycobacterium tuberculosis; assay: AntiMycobacterium tuberculosis activity 2-week 7H9/ADC/Tw MIC (uM); format: functional; conditions: 336 h
[27] = system: Mycobacterium tuberculosis; assay: AntiMycobacterium tuberculosis activity 1-week 7H9/cholesterol/BSA/Tx MIC (uM); format: functional; conditions: 168 h
[28] = system: Mycobacterium tuberculosis; assay: AntiMycobacterium tuberculosis activity 2-week 7H9/DPPC/cholesterol/BSA/Tx MIC (uM); format: functional; conditions: 336 h
[29] = system: Mycobacterium tuberculosis; assay: as §1; format: functional; conditions: 240 h; remark: listed apart in the source

Compound: COc1cc(-c2cc(-c3ccc(S(C)(=O)=O)cc3)cnc2N)ccc1O
- Inhibition (Plasmodium falciparum [1]): 94%
- IC50 (Plasmodium falciparum [2]): 140 nM
- IC50 (Plasmodium berghei [3]): 2520 nM
- Inhibition (Plasmodium berghei [4]): 100%
- IC50 (Plasmodium falciparum [5]): 100 nM
- CC20 (HepG2 [6]): 1550 nM
- IC50 (Plasmodium falciparum [7]): 100 nM
- IC50 (Plasmodium falciparum [8]): 70 nM
- CC50 (HepG2 [9]): > 10000 nM

Compound: COc1ccc(-c2cnc3ccc(N4CCCC4)nn23)cc1OC
- Inhibition (Plasmodium falciparum [1]): 91%
- IC50 (Plasmodium falciparum [2]): 670 nM
- IC50 (Plasmodium berghei [3]): 630 nM
- Inhibition (Plasmodium berghei [4]): 100%
- IC50 (Plasmodium falciparum [5]): 700 nM
- CC20 (HepG2 [6]): 4950 nM
- IC50 (Plasmodium falciparum [7]): 860 nM
- IC50 (Plasmodium falciparum [8]): 410 nM
- CC50 (HepG2 [9]): > 10000 nM

Compound: Cc1ccc2c(c1C)NC(=O)C21NN=C(c2ccccc2)S1 (stereo not given)
- Inhibition (Plasmodium falciparum [1]): 78%
- IC50 (Plasmodium falciparum [2]): 2130 nM
- IC50 (Plasmodium berghei [3]): 880 nM
- Inhibition (Plasmodium berghei [4]): 100%
- IC50 (Plasmodium falciparum [5]): 1130 nM
- CC20 (HepG2 [6]): >80000 nM
- IC50 (Plasmodium falciparum [7]): 890 nM
- IC50 (Plasmodium falciparum [8]): 900 nM
- CC50 (HepG2 [9]): > 7500 nM

Compound: Nc1nccc2ccc(-c3ccc4nccn4c3)cc12
- inhibition at 10 µM (HepG2 [10]): 50%
- Inhibition (Plasmodium falciparum [1]): 95%
- IC50 (Plasmodium falciparum [2]): 260 nM
- Inhibition (Plasmodium berghei [4]): 56%
- IC50 (Plasmodium falciparum [5]): 160 nM
- CC20 (HepG2 [6]): 5410 nM
- IC50 (Plasmodium falciparum [7]): 370 nM
- IC50 (Plasmodium falciparum [8]): 400 nM

Compound: Cc1cc(C)nc(-n2nc(C)cc2Nc2ccccc2)n1
- inhibition at 10 µM (HepG2 [10]): 7%
- IC50 (Plasmodium falciparum [5]): > 2000 nM
- IC50 (Plasmodium falciparum [8]): 220 nM

Compound: O=C(Nc1ccc(N2CCNCC2)cc1)c1ccn2ncc(-c3cccc(Cl)c3)c2n1
- Inhibition (Plasmodium falciparum [1]): 97%
- IC50 (Plasmodium falciparum [2]): 1190 nM
- IC50 (Plasmodium berghei [3]): > 10000 nM
- Inhibition (Plasmodium berghei [4]): 96%
- IC50 (Plasmodium falciparum [5]): 780 nM
- CC20 (HepG2 [6]): 760 nM
- IC50 (Plasmodium falciparum [7]): 1400 nM
- IC50 (Plasmodium falciparum [8]): 620 nM
- CC50 (HepG2 [9]): > 10000 nM

Compound: NS(=O)(=O)c1cccc(-c2ccc3ncc(N4CCOCC4)nc3c2)c1
- Inhibition (Plasmodium falciparum [1]): 92%
- IC50 (Plasmodium falciparum [2]): 1660 nM
- IC50 (Plasmodium berghei [3]): 1820 nM
- Inhibition (Plasmodium berghei [4]): 100%
- IC50 (Plasmodium falciparum [5]): 1500 nM
- CC20 (HepG2 [6]): 7610 nM
- IC50 (Plasmodium falciparum [7]): 1850 nM
- IC50 (Plasmodium falciparum [8]): 1330 nM
- CC50 (HepG2 [9]): > 10000 nM

Compound: COc1cccc(CC(=O)N2CCC(n3c(C)nc4ccc(F)cc43)CC2)c1
- inhibition at 10 µM (HepG2 [10]): 0%
- Inhibition (Plasmodium falciparum [1]): 72%
- IC50 (Plasmodium falciparum [2]): 230 nM
- Inhibition (Plasmodium berghei [4]): 38%
- IC50 (Plasmodium falciparum [5]): 240 nM
- CC20 (HepG2 [6]): >80000 nM
- IC50 (Plasmodium falciparum [7]): 250 nM
- IC50 (Plasmodium falciparum [8]): 310 nM

Compound: CN(C)c1cc(NC(=O)Nc2ccccc2)c2ccccc2n1
- Inhibition (Plasmodium falciparum [1]): 88%
- IC50 (Plasmodium falciparum [2]): 1100 nM
- IC50 (Plasmodium berghei [3]): > 10000 nM
- Inhibition (Plasmodium berghei [4]): 98%
- IC50 (Plasmodium falciparum [5]): 600 nM
- CC20 (HepG2 [6]): 6860 nM
- IC50 (Plasmodium falciparum [7]): 1230 nM
- IC50 (Plasmodium falciparum [8]): 3130 nM
- CC50 (HepG2 [9]): > 10000 nM

Compound: CCOC(=O)c1c(NC(=O)c2c(F)c(F)c(F)c(F)c2F)sc(C(N)=O)c1C
- MIC [11]: 0.39 µM (≈ 0.165 µg/mL)
- MIC90 [12]: < 0.25 µM
- MIC90 [13]: 0.78 µM (≈ 0.329 µg/mL)
- MIC90 [14]: 6.25 µM (≈ 2.64 µg/mL)
- MIC [15]: 0.05 µM (≈ 0.0211 µg/mL)
- MIC [16]: 0.07 µM (≈ 0.0296 µg/mL)
- CC50 (HepG2 [17]): > 50000 nM
- CC50 (HepG2 [17]; Homo sapiens, HepG2): 48800 nM
- MIC [18]: 0.39 µM (≈ 0.165 µg/mL)
- CC50 (HepG2 [19]): 23500 nM
- CC50 (HepG2 [19]; Homo sapiens, HepG2): 31700 nM
- MIC90 [20]: 0.23 µM (≈ 0.0971 µg/mL)
- MIC [21]: 0.39 µM (≈ 0.165 µg/mL)
- MIC [22]: 0.1 µM (≈ 0.0422 µg/mL)
- MIC [23]: 0.1 µM (≈ 0.0422 µg/mL)
- MIC [24]: 0.1 µM (≈ 0.0422 µg/mL)
- MIC [25]: > 50 µM
- MIC [26]: 0.39 µM (≈ 0.165 µg/mL)
- MIC [27]: 0.07 µM (≈ 0.0296 µg/mL)
- MIC [28]: 0.3 µM (≈ 0.127 µg/mL)
- MIC90 [29]: > 50 µM
- CC50 (HepG2 [9]): 4200 nM

Compound: CNC(=O)CNc1nc(-c2ccccn2)nc2scc(-c3ccccc3)c12
- inhibition at 10 µM (HepG2 [10]): 4%
- IC50 (Plasmodium falciparum [2]): > 2000 nM
- IC50 (Plasmodium falciparum [5]): > 2000 nM
- IC50 (Plasmodium falciparum [8]): 840 nM

Compound: O=[N+]([O-])c1cn2c(n1)OC[C@@H](OCc1ccc(OC(F)(F)F)cc1)C2 [PRETOMANID]
- MIC [11]: 0.39 µM (≈ 0.14 µg/mL)
- MIC90 [13]: 0.39 µM (≈ 0.14 µg/mL)
- MIC90 [14]: 0.78 µM (≈ 0.28 µg/mL)
- MIC [15]: 0.2 µM (≈ 0.0719 µg/mL)
- MIC [16]: 0.2 µM (≈ 0.0719 µg/mL)
- CC50 (HepG2 [17]; Homo sapiens, HepG2): > 50000 nM
- MIC [18]: 0.6 µM (≈ 0.216 µg/mL)
- CC50 (HepG2 [19]; Homo sapiens, HepG2): > 50000 nM
- MIC [21]: 0.3 µM (≈ 0.108 µg/mL)
- MIC [22]: 0.15 µM (≈ 0.0539 µg/mL)
- MIC [23]: 0.39 µM (≈ 0.14 µg/mL)
- MIC [24]: 0.39 µM (≈ 0.14 µg/mL)
- MIC [25]: 3.1 µM (≈ 1.11 µg/mL)
- MIC [26]: 0.39 µM (≈ 0.14 µg/mL)
- MIC [27]: 0.1 µM (≈ 0.0359 µg/mL)
- MIC [28]: 0.2 µM (≈ 0.0719 µg/mL)
- MIC90 [29]: 0.78 µM (≈ 0.28 µg/mL)

Compound: CCOc1ccc(-c2nc(CNCCc3ccc(F)cc3)cs2)cc1
- MIC [11]: 25 µM (≈ 8.91 µg/mL)
- MIC90 [13]: 25 µM (≈ 8.91 µg/mL)
- MIC90 [14]: 25 µM (≈ 8.91 µg/mL)
- MIC [15]: 12.5 µM (≈ 4.46 µg/mL)
- MIC [16]: 19 µM (≈ 6.77 µg/mL)
- CC50 (HepG2 [17]): 24000 nM
- CC50 (HepG2 [17]; Homo sapiens, HepG2): 21200 nM
- MIC [18]: 19 µM (≈ 6.77 µg/mL)
- CC50 (HepG2 [19]): 35400 nM
- CC50 (HepG2 [19]; Homo sapiens, HepG2): 33300 nM
- MIC [21]: 12.5 µM (≈ 4.46 µg/mL)
- MIC [22]: 12.5 µM (≈ 4.46 µg/mL)
- MIC [23]: 19 µM (≈ 6.77 µg/mL)
- MIC [24]: 25 µM (≈ 8.91 µg/mL)
- MIC [25]: 50 µM (≈ 17.8 µg/mL)
- MIC [26]: 25 µM (≈ 8.91 µg/mL)
- MIC [27]: 9.4 µM (≈ 3.35 µg/mL)
- MIC [28]: 12.5 µM (≈ 4.46 µg/mL)
- MIC90 [29]: 50 µM (≈ 17.8 µg/mL)
